Here are results for 29 molecules from patent US20030087774A1, “Fragrance compositions for the CO2 washing process” (priority 2001, published 2003).

The data set in a line: CO2 wash test of model fragrance A on cotton fabric (supercritical fluid extractor, GC FID). Format: physicochemical. Conditions: for fraction left on fabric: from the wash test of Table 2; for % Left on Fabric: supercritical CO2 43° C., 77 bar, density 0.25 g/ml, cotton fabric. The procedure:
The device used for this experiment was an Hewlett Packard 7680T SFE Supercritical Fluid Extractor. 1 g of cotton fabric was put into a 7 ml Thimble. 0.01 grams of the model fragrance A was applied to the uppermost part of the fabric representing the earliest stage of the CO2 cleaning process.
The CO2 properties used were: density=0.25 g/ml, pressure=77 bar (Pc=73.8 bar), temperature=43° C. These were supercritical as the Critical Temperature for CO2 is 31.1° C.
CO2 was introduced into the thimble and allowed to soak for 2 min. The thimble was flushed with CO2 for 5 min at a flow rate of 2 ml/min. The CO2/fragrance mixture was carried into the trap where the CO2 was evaporated leaving the fragrance on the analytical trap packing being maintained at −30 deg C. The trap was rinsed with Acetone. The fragrance/acetone mixture was analyzed using gas chromatography with flame ionization detection (GC FID).
The results on the GC FID were used to calculate the % of each fragrance ingredient that was retained on the fabric. (90% means that 90% of the fragrance was substantive on the fabric).

Turning to `O=C(OCc1ccccc1)c1ccccc1O` [Benzyl Salicylate], the “fraction left on fabric” value was found to be 0.908 and the “% Left on Fabric” value is 91%.
Regarding `O=C1CCCCCCCCCCCC(=O)OCCO1` [Ethylene Brassylate], the “fraction left on fabric” value is recorded as 0.928 and the “% Left on Fabric” value amounted to 93%.
The matching figures for `CCOC(=O)c1ccccc1C(=O)OCC` [Diethyl Phthalate]: 0.807 and 81%.
For the molecule `CC(C=O)Cc1ccc(C(C)(C)C)cc1` (centres unmarked) [Lilial], the “fraction left on fabric” value was 0.781 and the “% Left on Fabric” value is on record as 78%.
On the same counts, the results for `C=C1CCC2CC1C2(C)C` (stereo not drawn) [Pinene, Beta, beta-Pinene] are 0.995 and 100%.
On the same counts, the results for `CC(=O)O[C@]1(C)CC[C@@]23C[C@@H]1C(C)(C)[C@@H]2CC[C@H]3C` [Cedryl Acetate] are 0.834 and 83%.
Take `CC(=O)OCCc1ccccc1` [Phenyl Ethyl Acetate]: the “fraction left on fabric” value is listed as 0.698 and the “% Left on Fabric” value is on record as 70%.
With `CC(=O)/C=C/C1C(C)=CCCC1(C)C` (stereo not drawn) [Ionone, Alpha], the “fraction left on fabric” value is 0.729 and the “% Left on Fabric” value worked out at 73%.
On the same counts, the results for `CC1=CCC2CC1C2(C)C` (stereo not drawn) [Pinene, Alpha, alpha-Pinene] are 0.989 and 99%.
Take `CCCCC/C(C=O)=C/c1ccccc1` [Amyl Cinnamic Aldehyde]: the “fraction left on fabric” value is recorded as 0.83 and the “% Left on Fabric” value stood at 85%.
On the same counts, the results for Terpineol, Pure are 0.691 and 69%.
The matching figures for `C=CC(C)CCCC(C)(C)O` (centres unmarked) [Dihydro Myrcenol]: 0.737 and 74%.
On the same counts, the results for `CC(C)=CCC/C(C)=C/CO` [Geraniol, Supra] are 0.769 and 77%.
With `CC(=O)OCc1ccccc1` [Benzyl Acetate], the “fraction left on fabric” value is given as 0.799 and the “% Left on Fabric” value is given as 80%.
On the same counts, the results for `CC(=O)OC1CCC(C(C)(C)C)CC1` (centres unmarked) [Oryclon/Vertenex] are 0.687 and 69%.
On the same counts, the results for `CC(=O)O[C@@H]1C[C@H]2CC[C@]1(C)C2(C)C` (racemic) [Iso Bornyl Acetate] are 0.741 and 74%.
As for `CC(C)CCOC(=O)c1ccccc1O` [Iso Amyl Salicylate], the “fraction left on fabric” value is recorded as 0.759 and the “% Left on Fabric” value is 76%.
On the same counts, the results for `CCCCCCC(C=O)=Cc1ccccc1` [Hexyl Cinnamic Aldehyde] are 0.863 and 86%.
On the same counts, the results for `O=c1ccc2ccccc2o1` [Coumarin] are 0.945 and 94%.
In the case of Methyl Ionone Gamma Coeur, the “% Left on Fabric” value was 74%.
For the molecule `C[C@@H]1CC[C@H]2C(C)(C)[C@H]3C[C@@]12CC[C@@]3(C)O` [Cedrol], the “fraction left on fabric” value turned out to be 0.839 and the “% Left on Fabric” value stood at 84%.
Regarding `CC(=O)OC(C)(C)Cc1ccccc1` [Dimethyl Benzyl Carbinyl Acetate], the “fraction left on fabric” value amounted to 0.689 and the “% Left on Fabric” value turned out to be 69%.
The matching figures for `CC(CC=O)CCCC(C)(C)O` (centres unmarked) [Hydroxy Citronellal P]: 0.846 and 85%.
The matching figures for `CC(=O)OCC=C(C)C` [Prenyl acetate]: 0.969 and 97%.
For the molecule `OCCc1ccccc1` [Phenyl Ethyl Alcohol], the “% Left on Fabric” value worked out at 83%.
As to `CC(=O)c1c(C)c([N+](=O)[O-])c(C(C)(C)C)c([N+](=O)[O-])c1C` [Musk Ketone], the “fraction left on fabric” value turned out to be 0.905 and the “% Left on Fabric” value turned out to be 91%.
The matching figures for `CC(C)=CCCC(C)CCO` (centres unmarked) [Gitronellol 950, Citronellol 950]: 0.763 and 76%.
On the same counts, the results for `C=CCc1ccc(O)c(OC)c1` [Eugenol] are 0.794 and 79%.
Consider `C=C(C)[C@H]1CC=C(C)CC1` [Limonene D], for which the “fraction left on fabric” value is given as 0.977 and the “% Left on Fabric” value is 98%.
